Assay results published in patent US8304206B2, “Mass spectrometry assays for identifying compounds that activate deacetylases” (Sirtris Pharmaceuticals, Inc., priority 2005, dated 2012).
Where two headings read alike, the source gives them in different places.

Tests used:
[1] = molecular target: T1, SIRT1 (Homo sapiens, UniProt Q96EB6); experiment: SIRT1 Km for NAD+ (mass spectrometry); assay type: biochemical; settings: 50 μM Acetylated Peptide Substrate, 1% DMSO
T1 sequence (Q96EB6 1-747): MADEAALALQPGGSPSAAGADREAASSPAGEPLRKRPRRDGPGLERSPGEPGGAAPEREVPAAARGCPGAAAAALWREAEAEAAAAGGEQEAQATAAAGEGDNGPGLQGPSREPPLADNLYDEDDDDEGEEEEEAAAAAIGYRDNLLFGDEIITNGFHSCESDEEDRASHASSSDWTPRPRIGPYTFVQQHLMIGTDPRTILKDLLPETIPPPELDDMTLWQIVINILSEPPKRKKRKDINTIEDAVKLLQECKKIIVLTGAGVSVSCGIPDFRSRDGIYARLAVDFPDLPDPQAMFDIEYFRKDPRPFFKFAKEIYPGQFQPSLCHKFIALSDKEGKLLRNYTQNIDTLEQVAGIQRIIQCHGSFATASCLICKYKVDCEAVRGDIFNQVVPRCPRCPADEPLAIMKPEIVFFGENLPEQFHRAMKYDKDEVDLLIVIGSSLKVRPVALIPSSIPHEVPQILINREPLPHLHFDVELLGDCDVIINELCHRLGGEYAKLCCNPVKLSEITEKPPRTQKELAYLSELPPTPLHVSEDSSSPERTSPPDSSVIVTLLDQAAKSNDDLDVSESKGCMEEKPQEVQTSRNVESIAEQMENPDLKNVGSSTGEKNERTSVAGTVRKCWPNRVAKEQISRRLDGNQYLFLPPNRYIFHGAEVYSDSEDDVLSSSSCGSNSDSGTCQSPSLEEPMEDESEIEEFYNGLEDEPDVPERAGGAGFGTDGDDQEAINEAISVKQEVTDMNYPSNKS

[2] = molecular target: T1, SIRT1; settings: Sirt1, FRET; peptide p53 20 mer (aa 372-387) *FL; read-out: NAD Km; cited from earlier work
[3] = molecular target: T2, Sirt2 (Homo sapiens, UniProt Q8IXJ6); settings: Sirt2, FRET; peptide p53 20 mer (aa 372-387) *FL; read-out: NAD Km; cited from earlier work
T2 sequence (Q8IXJ6 1-389): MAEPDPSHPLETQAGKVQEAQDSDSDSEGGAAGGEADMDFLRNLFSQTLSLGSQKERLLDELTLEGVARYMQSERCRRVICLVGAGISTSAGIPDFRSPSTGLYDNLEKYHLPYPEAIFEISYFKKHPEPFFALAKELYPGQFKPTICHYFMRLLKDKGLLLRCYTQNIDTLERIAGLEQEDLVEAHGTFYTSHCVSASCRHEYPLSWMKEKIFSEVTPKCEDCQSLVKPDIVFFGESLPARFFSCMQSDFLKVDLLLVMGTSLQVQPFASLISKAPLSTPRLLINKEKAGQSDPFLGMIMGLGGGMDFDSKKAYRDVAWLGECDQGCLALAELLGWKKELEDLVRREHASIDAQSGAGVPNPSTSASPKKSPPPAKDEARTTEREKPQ

[4] = molecular target: T2, Sirt2; settings: Sirt2, Fluorescent; peptide p53 (aa 317-320) *FL; read-out: NAD Km; cited from earlier work
[5] = molecular target: T1, SIRT1; settings: Sirt1, Nicotinamide release; peptide p53 19 mer (aa 368-386) no FL; read-out: NAD Km; cited from earlier work
[6] = molecular target: T1, SIRT1; settings: Sirt1, Nicotinamide release, read-out: NAD Km, cited from earlier work
[7] = molecular target: T3, Sirt3 (Homo sapiens, UniProt Q9NTG7); settings: Sirt3, Fluorescent; peptide p53 (aa 317-320) *FL; read-out: NAD Km; cited from earlier work
T3 sequence (Q9NTG7 1-399): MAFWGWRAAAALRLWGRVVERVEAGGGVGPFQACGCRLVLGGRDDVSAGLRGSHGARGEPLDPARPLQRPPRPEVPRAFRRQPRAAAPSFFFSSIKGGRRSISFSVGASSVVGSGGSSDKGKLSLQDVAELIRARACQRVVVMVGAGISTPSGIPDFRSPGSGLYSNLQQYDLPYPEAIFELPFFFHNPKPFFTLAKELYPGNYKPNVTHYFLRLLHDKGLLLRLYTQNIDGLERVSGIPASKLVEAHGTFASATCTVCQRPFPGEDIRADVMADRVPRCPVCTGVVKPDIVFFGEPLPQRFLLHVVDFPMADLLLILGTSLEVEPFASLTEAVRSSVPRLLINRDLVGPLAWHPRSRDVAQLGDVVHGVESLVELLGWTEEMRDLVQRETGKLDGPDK

[8] = molecular target: T1, SIRT1; settings: Sirt1, Fluorescent; peptide p53 (aa 379-382) *FL; read-out: NAD Km; cited from earlier work

- Km [1]: 220 µM
Compound: NC(=O)c1ccc[n+]([C@@H]2O[C@H](COP(=O)([O-])OP(=O)(O)OC[C@H]3O[C@@H](n4cnc5c(N)ncnc54)[C@H](O)[C@@H]3O)[C@@H](O)[C@H]2O)c1 [NAD^+]
- Km [2]: 90 µM
- Km [3]: 42 µM
- Km [4]: 547 µM
- Km [5]: 133 µM
- Km ([6]; peptide p53 (aa 368-386) *FL): 192 µM
- Km ([6]; peptide p53 (aa 368-386) no FL): 132 µM
- Km [7]: 2030 µM
- Km [8]: 558 µM
